Laboratory results: US20240116985A1, “STAPLED PEPTIDES AND METHODS THEREOF” (priority 2020, published 2024)
Converted amounts (≈) assume the structure as drawn. Like-named read-outs stand apart in the source and are kept apart here.

Columns and labels:
[1] = CHI Log D procedure; assay type: physicochemical; settings: for chromatographic logD: pH 7.4, CHI Log D; for CHI Log D: pH 7.4
[2] = molecular target: T1, full-length beta-Catenin (Uniprot ID P35222) (Homo sapiens, UniProt P35222); test: Fluorescence polarization IC50 (beta-catenin / 5FAM-TCF4 10-53 competition); assay type: binding
T1 construct: 10 nM full-length beta-Catenin (Uniprot ID P35222)
T1 sequence (P35222 1-781): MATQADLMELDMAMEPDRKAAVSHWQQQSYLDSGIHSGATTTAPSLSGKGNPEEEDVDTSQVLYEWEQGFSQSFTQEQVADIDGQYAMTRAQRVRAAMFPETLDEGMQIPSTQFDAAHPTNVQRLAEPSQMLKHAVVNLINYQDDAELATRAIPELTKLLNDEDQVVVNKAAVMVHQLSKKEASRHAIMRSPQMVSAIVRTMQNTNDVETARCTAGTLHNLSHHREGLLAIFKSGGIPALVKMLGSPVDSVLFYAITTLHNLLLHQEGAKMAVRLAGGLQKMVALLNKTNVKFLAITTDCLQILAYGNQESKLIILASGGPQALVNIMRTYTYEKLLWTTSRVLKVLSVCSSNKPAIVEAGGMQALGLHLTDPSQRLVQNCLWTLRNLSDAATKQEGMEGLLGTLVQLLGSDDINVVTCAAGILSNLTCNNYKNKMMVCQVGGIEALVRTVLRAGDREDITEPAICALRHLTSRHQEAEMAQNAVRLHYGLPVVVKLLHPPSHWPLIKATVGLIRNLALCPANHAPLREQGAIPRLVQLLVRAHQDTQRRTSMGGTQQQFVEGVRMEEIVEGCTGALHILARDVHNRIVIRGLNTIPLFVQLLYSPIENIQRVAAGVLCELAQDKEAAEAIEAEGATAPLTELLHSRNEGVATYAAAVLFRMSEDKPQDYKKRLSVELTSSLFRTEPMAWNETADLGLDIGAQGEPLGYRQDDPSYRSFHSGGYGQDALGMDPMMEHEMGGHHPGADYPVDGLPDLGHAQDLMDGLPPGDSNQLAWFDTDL

[3] = Solubility in PBS; assay type: physicochemical
Summary of the method: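 HPLC quantitation of peptide remaining in the PBS supernatant after ultracentrifugation, referenced to a 50 μM solution in DMSO.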

[4] = fluorescence polarization, read-out: beta-Catenin FP IC50

chromatographic logD [1] | IC50 [2, 4] | Solubility [3] | Solubility ([3]; Solubility (uM)) | solubility at 15 min ([3]; Solubility (uM)) | CHI Log D [1] | IC50 ([2]; read-out: FP EC50) | Structure (SMILES)
2.07 | 146 nM | 50 µM (≈ 93.3 µg/mL) | – | – | – | – | CC(=O)N1CCC[C@]12CC=CCCCC1(CCCC=CCCCCCC[C@@](C)(C(=O)N[C@@H](Cc3cccc(F)c3)C(=O)N[C@@H](Cc3csc4ccccc34)C(=O)N[C@@H](CCC(N)=O)C(N)=O)NC(=O)[C@H](CCC(N)=O)NC(=O)[C@H](Cc3ccsc3)NC(=O)[C@H](C)NC(=O)[C@H](C)NC(=O)[C@H](CCC(=O)O)NC(=O)[C@H](CC(=O)O)NC1=O)NC(=O)[C@H](C)NC(=O)[C@H](CC(=O)O)NC2=O (stereo partly drawn) [I-429, Ac-PL3-Asp-Ala-B5-Asp-Glu-Ala-Ala-3Thi-Gln-S8-3FF-BztA-Gln-NH2]
2.23 | 1320 nM | – | 33 µM (≈ 57.3 µg/mL) | – | – | – | CC(=O)N1CCC[C@]12CC=CCCCC1(CCCC=CCCCCCC[C@@](C)(C(=O)N[C@@H](Cc3cccc(F)c3)C(=O)N[C@@H](Cc3csc4ccccc34)C(N)=O)NC(=O)[C@H](CCC(N)=O)NC(=O)[C@H](Cc3ccsc3)NC(=O)[C@H](C)NC(=O)[C@H](C)NC(=O)[C@H](CCC(=O)O)NC(=O)[C@H](CC(=O)O)NC1=O)NC(=O)[C@H](C)NC(=O)[C@H](CC(=O)O)NC2=O (stereo partly drawn) [I-431, Ac-PL3-Asp-Ala-B5-Asp-Glu-Ala-Ala-3Thi-Gln-S8-3FF-BztA-NH2]
1.39 | 5000 nM | – | – | 46 µM (≈ 84.2 µg/mL) | – | – | CC(=O)N1CCC[C@]12CC=CCCCC1(CCCC=CCCCCCC[C@@](C)(C(=O)NC(Cc3cncn3C)C(=O)N[C@@H](Cc3csc4ccccc34)C(=O)N[C@@H](CCC(N)=O)C(N)=O)NC(=O)[C@H](CC(N)=O)NC(=O)[C@H](Cc3ccccc3)NC(=O)[C@H](C)NC(=O)[C@H](C)NC(=O)[C@H](CCC(=O)O)NC(=O)[C@H](CC(=O)O)NC1=O)NC(=O)[C@H](C)NC(=O)[C@H](CC(=O)O)NC2=O (stereo partly drawn) [I-438, Ac-PL3-Asp-Ala-B5-Asp-Glu-Ala-Ala-Phe-Asn-S8-3meH-BztA-Gln-NH2]
– | 4480 nM | 40 µM (≈ 73.6 µg/mL) | – | – | 2.098 | 4480 nM | CC(=O)N1CCC[C@]12CC=CCCCC1(CCCC=CCCCCCC[C@@](C)(C(=O)N[C@@H](CCc3ccccc3)C(=O)N[C@@H](Cc3csc4ccccc34)C(=O)N[C@@H](CCC(N)=O)C(N)=O)NC(=O)[C@H](CC(N)=O)NC(=O)[C@H](Cc3ccccc3)NC(=O)[C@H](C)NC(=O)[C@H](C)NC(=O)[C@H](CCC(=O)O)NC(=O)[C@H](CC(=O)O)NC1=O)NC(=O)[C@H](C)NC(=O)[C@H](CC(=O)O)NC2=O (stereo partly drawn) [I-442, Ac-PL3-Asp-Ala-B5-Asp-Glu-Ala-Ala-Phe-Asn-S8-hPhe-BztA-Gln-NH2]
– | 2130 nM | 50 µM (≈ 92.1 µg/mL) | – | – | 2.128 | 2130 nM | CC(=O)N1CCC[C@]12CC=CCCCC1(CCCC=CCCCCCC[C@@](C)(C(=O)N[C@@H](CCc3ccccc3)C(=O)N[C@@H](Cc3csc4ccccc34)C(=O)N[C@@H](CCC(N)=O)C(N)=O)NC(=O)[C@H](CC(N)=O)NC(=O)[C@H](Cc3ccccc3)NC(=O)[C@H](C)NC(=O)[C@H](C)NC(=O)[C@H](CCC(=O)O)NC(=O)[C@H](CC(=O)O)NC1=O)NC(=O)[C@H](C)NC(=O)[C@H](CC(=O)O)NC2=O (stereo partly drawn) [I-443, Ac-PL3-Asp-Ala-B5-Asp-Glu-Ala-Ala-Phe-Asn-S8-hPhe-BztA-Gln-NH2]
1.99 | 80 nM | 50 µM (≈ 91.9 µg/mL) | – | – | – | – | CC(=O)N1CCC[C@]12CC=CCCCC1(CCCC=CCCCCCC[C@@](C)(C(=O)N[C@@H](Cc3ccccc3)C(=O)N[C@@H](Cc3csc4ccccc34)C(=O)N[C@@H](CCC(N)=O)C(N)=O)NC(=O)[C@H](CC(N)=O)NC(=O)[C@H](Cc3ccccc3)NC(=O)[C@H](C)NC(=O)[C@H](C)NC(=O)[C@H](Cc3nn[nH]n3)NC(=O)[C@H](CC(=O)O)NC1=O)NC(=O)[C@H](C)NC(=O)[C@H](CC(=O)O)NC2=O (stereo partly drawn) [I-444, Ac-PL3-Asp-Ala-B5-Asp-Tetz-Ala-Ala-Phe-Asn-S8-Phe-BztA-Gln-NH2]

The remaining lines, values behind:

Structure (SMILES) | chromatographic logD [1] | IC50 [2, 4] | Solubility [3] | Solubility ([3]; Solubility (uM)) | solubility at 15 min ([3]; Solubility (uM)) | CHI Log D [1] | IC50 ([2]; read-out: FP EC50)
CC(=O)N1CCC[C@]12CC=CCCCC1(CCCC=CCCCCCC[C@@](C)(C(=O)N[C@@H](Cc3ccccc3)C(=O)N[C@@H](Cc3csc4ccccc34)C(N)=O)NC(=O)[C@H](CC(N)=O)NC(=O)[C@H](Cc3ccccc3)NC(=O)[C@H](C)NC(=O)[C@H](C)NC(=O)[C@H](CCC(=O)O)NC(=O)[C@H](CC(=O)O)NC1=O)NC(=O)[C@H](C)NC(=O)[C@H](CC(=O)O)NC2=O (stereo partly drawn) [I-432, Ac-PL3-Asp-Ala-B5-Asp-Glu-Ala-Ala-Phe-Asn-S8-Phe-BztA-NH2] | 2.23 | 145 nM | – | 23 µM (≈ 39.1 µg/mL) | – | – | –
COC[C@@H]1NC(=O)[C@H](Cc2ccccc2)NC(=O)[C@H](C)NC(=O)[C@H](C)NC(=O)[C@H](CCC(=O)O)NC(=O)[C@H](CC(=O)O)NC(=O)C2(CCCC=CCCCCCC[C@@](C)(C(=O)N[C@@H](Cc3ccccc3)C(=O)N[C@@H](Cc3csc4ccccc34)C(=O)N[C@@H](CCC(N)=O)C(N)=O)NC1=O)CCCC=CC[C@]1(CCCN1C(C)=O)C(=O)N[C@@H](CC(=O)O)C(=O)N[C@@H](C)C(=O)N2 (stereo partly drawn) [I-433, Ac-PL3-Asp-Ala-B5-Asp-Glu-Ala-Ala-Phe-S(OMe)-S8-Phe-BztA-Gln-NH2] | 2.08 | 136 nM | – | 39 µM (≈ 70.7 µg/mL) | – | – | –
CC(=O)N1CCC[C@]12CC=CCCCC1(CCCC=CCCCCCC[C@@](C)(C(=O)N[C@@H](Cc3ccccc3F)C(=O)N[C@@H](Cc3csc4ccccc34)C(=O)N[C@@H](CCC(N)=O)C(N)=O)NC(=O)[C@H](CC(N)=O)NC(=O)[C@H](Cc3ccccc3)NC(=O)[C@H](C)NC(=O)[C@H](C)NC(=O)[C@H](CCC(=O)O)NC(=O)[C@H](CC(=O)O)NC1=O)NC(=O)[C@H](C)NC(=O)[C@H](CC(=O)O)NC2=O (stereo partly drawn) [I-434, Ac-PL3-Asp-Ala-B5-Asp-Glu-Ala-Ala-Phe-Asn-S8-2FF-BztA-Gln-NH2] | 2.05 | 67.5 nM | – | 20 µM (≈ 36.9 µg/mL) | – | – | –
CC(=O)N1CCC[C@]12CC=CCCCC1(CCCC=CCCCCCC[C@@](C)(C(=O)N[C@@H](Cc3ccccc3Cl)C(=O)N[C@@H](Cc3csc4ccccc34)C(=O)N[C@@H](CCC(N)=O)C(N)=O)NC(=O)[C@H](CC(N)=O)NC(=O)[C@H](Cc3ccccc3)NC(=O)[C@H](C)NC(=O)[C@H](C)NC(=O)[C@H](CCC(=O)O)NC(=O)[C@H](CC(=O)O)NC1=O)NC(=O)[C@H](C)NC(=O)[C@H](CC(=O)O)NC2=O (stereo partly drawn) [I-435, Ac-PL3-Asp-Ala-B5-Asp-Glu-Ala-Ala-Phe-Asn-S8-2C1F-BztA-Gln-NH2] | 2.13 | 70 nM | 50 µM (≈ 93.1 µg/mL) | – | – | – | –
CC(=O)N1CCC[C@]12CC=CCCCC1(CCCC=CCCCCCC[C@@](C)(C(=O)N[C@@H](Cc3ccccc3Br)C(=O)N[C@@H](Cc3csc4ccccc34)C(=O)N[C@@H](CCC(N)=O)C(N)=O)NC(=O)[C@H](CC(N)=O)NC(=O)[C@H](Cc3ccccc3)NC(=O)[C@H](C)NC(=O)[C@H](C)NC(=O)[C@H](CCC(=O)O)NC(=O)[C@H](CC(=O)O)NC1=O)NC(=O)[C@H](C)NC(=O)[C@H](CC(=O)O)NC2=O (stereo partly drawn) [I-436, Ac-PL3-Asp-Ala-B5-Asp-Glu-Ala-Ala-Phe-Asn-S8-2BrF-BztA-Gln-NH2] | 2.16 | 56 nM | 50 µM (≈ 95.3 µg/mL) | – | – | – | –
CC(=O)N1CCC[C@]12CC=CCCCC1(CCCC=CCCCCCC[C@@](C)(C(=O)N[C@@H](Cc3ccccc3[N+](=O)[O-])C(=O)N[C@@H](Cc3csc4ccccc34)C(=O)N[C@@H](CCC(N)=O)C(N)=O)NC(=O)[C@H](CC(N)=O)NC(=O)[C@H](Cc3ccccc3)NC(=O)[C@H](C)NC(=O)[C@H](C)NC(=O)[C@H](CCC(=O)O)NC(=O)[C@H](CC(=O)O)NC1=O)NC(=O)[C@H](C)NC(=O)[C@H](CC(=O)O)NC2=O (stereo partly drawn) [I-441, Ac-PL3-Asp-Ala-B5-Asp-Glu-Ala-Ala-Phe-Asn-S8-2NO2F-BztA-Gln-NH2] | 2 | 133 nM | – | 38 µM (≈ 71.1 µg/mL) | – | – | –
CC(=O)N1CCC[C@]12CC=CCCCC1(CCCC=CCCCCCC[C@@](C)(C(=O)N[C@@H](Cc3ccccc3)C(=O)N[C@@H](Cc3csc4ccccc34)C(=O)N[C@@H](CCC(N)=O)C(N)=O)NC(=O)[C@H](CC(N)=O)NC(=O)[C@H](Cc3ccccc3)NC(=O)[C@H](C)NC(=O)[C@H](C)NC(=O)[C@H](CC(=O)O)NC(=O)[C@H](Cc3nn[nH]n3)NC1=O)NC(=O)[C@H](C)NC(=O)[C@H](CC(=O)O)NC2=O (stereo partly drawn) [I-445, Ac-PL3-Asp-Ala-B5-Tetz-Asp-Ala-Ala-Phe-Asn-S8-Phe-BztA-Gln-NH2] | 2.05 | 4960 nM | – | 43 µM (≈ 79 µg/mL) | – | – | –
